Results published in ChEMBL document CHEMBL1201862, “PubChem BioAssay data set” (2004).
Calls of active or inactive are those of the source. Cut-off read from the data, not from the text of the source, for most assays here: actives have a measured IC50 and inactives only a lower limit.

Assays:
Format in all cases: functional
Fatty acid synthase [1] = biological target: T1, Fatty acid synthase (Homo sapiens, UniProt P49327); assay: FAS thioesterase domain inhibitors, dose response, biochemical, endpoint fluorescence intensity, uHTS hits (AID 624327);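 note: fluorescence from hydrolysis of an O-methyl fluorescein acyl ester substrate by the enzyme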
T1 sequence (P49327 whole entry, the tested form may be a part): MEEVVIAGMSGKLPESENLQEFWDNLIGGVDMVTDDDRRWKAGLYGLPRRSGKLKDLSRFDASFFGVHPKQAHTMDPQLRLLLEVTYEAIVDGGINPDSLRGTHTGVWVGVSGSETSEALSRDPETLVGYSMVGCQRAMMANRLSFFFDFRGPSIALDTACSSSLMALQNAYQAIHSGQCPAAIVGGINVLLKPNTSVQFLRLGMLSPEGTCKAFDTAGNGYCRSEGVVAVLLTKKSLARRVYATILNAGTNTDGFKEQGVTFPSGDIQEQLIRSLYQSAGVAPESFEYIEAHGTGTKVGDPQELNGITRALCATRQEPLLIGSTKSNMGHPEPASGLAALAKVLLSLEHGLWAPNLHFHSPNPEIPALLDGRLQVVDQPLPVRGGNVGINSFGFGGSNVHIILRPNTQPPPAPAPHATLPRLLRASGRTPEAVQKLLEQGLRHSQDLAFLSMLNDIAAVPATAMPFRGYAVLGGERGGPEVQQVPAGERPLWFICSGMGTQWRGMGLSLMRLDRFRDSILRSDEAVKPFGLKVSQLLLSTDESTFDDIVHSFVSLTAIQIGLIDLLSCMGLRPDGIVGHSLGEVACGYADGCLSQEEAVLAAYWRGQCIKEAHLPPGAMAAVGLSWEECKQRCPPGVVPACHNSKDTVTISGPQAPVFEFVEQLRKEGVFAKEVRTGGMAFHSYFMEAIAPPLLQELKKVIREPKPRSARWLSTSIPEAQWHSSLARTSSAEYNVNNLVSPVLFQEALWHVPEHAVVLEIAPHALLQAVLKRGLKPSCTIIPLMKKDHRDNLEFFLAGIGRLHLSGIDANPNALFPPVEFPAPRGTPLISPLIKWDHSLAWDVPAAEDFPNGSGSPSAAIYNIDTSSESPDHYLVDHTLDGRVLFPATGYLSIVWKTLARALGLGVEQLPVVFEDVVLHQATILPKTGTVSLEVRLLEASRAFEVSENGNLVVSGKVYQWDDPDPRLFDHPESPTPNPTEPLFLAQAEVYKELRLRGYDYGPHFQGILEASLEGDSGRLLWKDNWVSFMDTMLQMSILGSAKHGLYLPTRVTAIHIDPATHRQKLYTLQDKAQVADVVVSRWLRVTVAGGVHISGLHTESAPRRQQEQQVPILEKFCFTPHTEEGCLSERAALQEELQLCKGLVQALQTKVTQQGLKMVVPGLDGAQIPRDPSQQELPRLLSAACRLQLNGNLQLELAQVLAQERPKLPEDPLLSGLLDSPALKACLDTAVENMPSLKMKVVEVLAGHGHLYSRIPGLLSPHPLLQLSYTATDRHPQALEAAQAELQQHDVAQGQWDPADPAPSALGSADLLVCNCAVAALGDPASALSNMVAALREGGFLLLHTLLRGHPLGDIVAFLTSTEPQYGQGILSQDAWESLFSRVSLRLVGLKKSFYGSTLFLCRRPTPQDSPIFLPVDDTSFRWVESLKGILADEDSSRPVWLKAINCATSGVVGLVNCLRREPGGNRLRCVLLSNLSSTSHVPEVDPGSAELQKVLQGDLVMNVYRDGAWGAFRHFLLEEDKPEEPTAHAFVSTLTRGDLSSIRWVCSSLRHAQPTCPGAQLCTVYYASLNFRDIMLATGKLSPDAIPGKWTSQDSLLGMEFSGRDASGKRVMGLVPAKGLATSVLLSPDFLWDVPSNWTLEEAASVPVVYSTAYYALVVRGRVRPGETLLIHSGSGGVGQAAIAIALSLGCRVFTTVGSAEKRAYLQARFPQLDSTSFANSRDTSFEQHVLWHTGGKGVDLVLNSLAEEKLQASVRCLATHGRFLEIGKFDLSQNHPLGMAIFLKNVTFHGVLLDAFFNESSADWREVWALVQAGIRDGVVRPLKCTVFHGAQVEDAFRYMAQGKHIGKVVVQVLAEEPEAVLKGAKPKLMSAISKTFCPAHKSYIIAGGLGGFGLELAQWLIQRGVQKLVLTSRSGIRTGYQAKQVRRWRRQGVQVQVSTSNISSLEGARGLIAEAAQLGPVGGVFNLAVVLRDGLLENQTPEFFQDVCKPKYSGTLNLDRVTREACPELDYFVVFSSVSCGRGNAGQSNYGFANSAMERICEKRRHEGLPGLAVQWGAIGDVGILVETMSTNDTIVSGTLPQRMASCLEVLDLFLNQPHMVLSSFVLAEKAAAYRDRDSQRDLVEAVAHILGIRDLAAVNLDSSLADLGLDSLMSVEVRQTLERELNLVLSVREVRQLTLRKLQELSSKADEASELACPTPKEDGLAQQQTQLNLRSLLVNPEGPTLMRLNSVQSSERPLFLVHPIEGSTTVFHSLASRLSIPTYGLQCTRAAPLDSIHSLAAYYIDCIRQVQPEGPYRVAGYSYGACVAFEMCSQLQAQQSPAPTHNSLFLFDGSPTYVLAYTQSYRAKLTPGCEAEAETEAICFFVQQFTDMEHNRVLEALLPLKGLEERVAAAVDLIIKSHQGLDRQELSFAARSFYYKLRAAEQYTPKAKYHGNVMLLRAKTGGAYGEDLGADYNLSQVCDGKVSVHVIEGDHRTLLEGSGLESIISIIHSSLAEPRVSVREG

[2] = biological target: Apoptotic protease-activating factor 1 (Homo sapiens, UniProt O14727)
Chain of Apoptotic protease-activating factor 1 (O14727 whole entry, the tested form may be a part): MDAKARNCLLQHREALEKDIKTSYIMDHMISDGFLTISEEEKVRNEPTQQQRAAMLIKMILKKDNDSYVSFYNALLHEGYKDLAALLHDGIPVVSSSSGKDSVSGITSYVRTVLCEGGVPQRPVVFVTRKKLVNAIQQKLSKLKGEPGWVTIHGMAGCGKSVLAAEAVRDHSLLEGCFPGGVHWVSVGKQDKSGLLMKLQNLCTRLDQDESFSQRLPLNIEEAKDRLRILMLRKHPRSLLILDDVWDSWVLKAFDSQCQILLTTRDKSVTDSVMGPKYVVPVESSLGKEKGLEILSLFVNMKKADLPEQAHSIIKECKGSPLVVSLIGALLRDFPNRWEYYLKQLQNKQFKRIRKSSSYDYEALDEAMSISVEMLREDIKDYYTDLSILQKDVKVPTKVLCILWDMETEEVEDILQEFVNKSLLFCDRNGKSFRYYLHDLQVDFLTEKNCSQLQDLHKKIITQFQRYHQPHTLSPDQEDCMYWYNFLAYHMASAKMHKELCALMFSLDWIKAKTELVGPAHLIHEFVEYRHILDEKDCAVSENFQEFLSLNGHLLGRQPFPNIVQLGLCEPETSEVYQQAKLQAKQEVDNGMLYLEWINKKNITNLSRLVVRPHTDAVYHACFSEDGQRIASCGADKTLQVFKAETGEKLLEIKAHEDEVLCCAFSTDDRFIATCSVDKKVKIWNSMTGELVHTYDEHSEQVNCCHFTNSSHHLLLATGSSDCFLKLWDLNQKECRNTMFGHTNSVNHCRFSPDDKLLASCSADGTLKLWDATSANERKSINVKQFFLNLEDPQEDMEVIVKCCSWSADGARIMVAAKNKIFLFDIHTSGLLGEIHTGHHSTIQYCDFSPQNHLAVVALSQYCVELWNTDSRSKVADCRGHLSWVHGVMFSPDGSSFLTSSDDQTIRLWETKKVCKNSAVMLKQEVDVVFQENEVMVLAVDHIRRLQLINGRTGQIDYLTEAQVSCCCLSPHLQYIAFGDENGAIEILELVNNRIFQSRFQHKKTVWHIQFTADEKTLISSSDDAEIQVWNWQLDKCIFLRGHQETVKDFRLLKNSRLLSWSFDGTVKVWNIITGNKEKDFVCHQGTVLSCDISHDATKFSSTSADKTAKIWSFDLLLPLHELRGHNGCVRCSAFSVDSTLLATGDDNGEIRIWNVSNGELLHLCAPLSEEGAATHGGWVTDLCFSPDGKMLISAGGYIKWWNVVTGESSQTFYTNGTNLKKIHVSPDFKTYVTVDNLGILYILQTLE

Fatty acid synthase [3] = biological target: T1, Fatty acid synthase; assay: FAS thioesterase domain inhibitors, dose response, biochemical, kinetic fluorescence intensity (AID 624326);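 note: rate of fluorescence rise from hydrolysis of a fluorogenic O-methyl fluorescein ester substrate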
[4] = biological target: T2, Sentrin-specific protease 8 (Homo sapiens, UniProt Q96LD8); assay: SENP8 protease inhibitors, SAR follow-up, biochemical, luminescence, set 2 (AID 588601)
T2 sequence (Q96LD8 whole entry): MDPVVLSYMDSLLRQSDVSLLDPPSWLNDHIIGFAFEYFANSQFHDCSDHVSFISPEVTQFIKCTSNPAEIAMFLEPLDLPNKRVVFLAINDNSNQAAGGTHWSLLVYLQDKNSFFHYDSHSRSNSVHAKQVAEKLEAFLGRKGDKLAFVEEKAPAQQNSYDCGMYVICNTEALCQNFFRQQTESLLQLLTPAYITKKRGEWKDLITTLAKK

[5] = biological target: T3, Sentrin-specific protease 7 (Homo sapiens, UniProt Q9BQF6); assay: SENP7 protease inhibitors, SAR follow-up, biochemical, luminescence (AID 504497)
T3 sequence (Q9BQF6 whole entry): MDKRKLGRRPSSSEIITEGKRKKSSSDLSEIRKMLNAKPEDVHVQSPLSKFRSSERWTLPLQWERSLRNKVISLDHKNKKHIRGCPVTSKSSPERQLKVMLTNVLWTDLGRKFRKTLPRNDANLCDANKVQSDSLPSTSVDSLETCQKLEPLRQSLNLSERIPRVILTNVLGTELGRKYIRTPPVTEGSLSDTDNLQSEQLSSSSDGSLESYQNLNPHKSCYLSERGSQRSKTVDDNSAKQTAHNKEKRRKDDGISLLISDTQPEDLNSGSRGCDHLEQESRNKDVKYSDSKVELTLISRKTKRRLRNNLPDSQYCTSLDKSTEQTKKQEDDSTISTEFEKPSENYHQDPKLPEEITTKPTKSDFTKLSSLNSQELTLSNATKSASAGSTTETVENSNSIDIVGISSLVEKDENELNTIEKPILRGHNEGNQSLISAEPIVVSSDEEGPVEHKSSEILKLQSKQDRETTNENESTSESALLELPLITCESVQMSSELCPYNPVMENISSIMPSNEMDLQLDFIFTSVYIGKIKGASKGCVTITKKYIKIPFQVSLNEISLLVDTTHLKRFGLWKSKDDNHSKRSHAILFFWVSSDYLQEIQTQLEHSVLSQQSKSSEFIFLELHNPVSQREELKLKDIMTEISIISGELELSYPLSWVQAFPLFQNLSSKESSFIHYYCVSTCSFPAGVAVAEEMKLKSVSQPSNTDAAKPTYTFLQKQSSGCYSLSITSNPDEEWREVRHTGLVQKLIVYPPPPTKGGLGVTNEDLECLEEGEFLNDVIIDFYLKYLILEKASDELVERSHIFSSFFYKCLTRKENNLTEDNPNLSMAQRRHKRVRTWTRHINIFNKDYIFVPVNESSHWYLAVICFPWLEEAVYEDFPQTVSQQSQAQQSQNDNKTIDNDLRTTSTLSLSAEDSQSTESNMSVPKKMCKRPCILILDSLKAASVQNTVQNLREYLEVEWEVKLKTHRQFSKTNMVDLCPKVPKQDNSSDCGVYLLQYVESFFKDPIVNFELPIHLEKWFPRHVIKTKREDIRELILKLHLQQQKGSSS

[6] = biological target: T4, Sentrin-specific protease 6 (Homo sapiens, UniProt Q9GZR1); assay: SAR Analysis of small molecule inhibitors of Sentrin-specific protease 6 (SENP6) using a Luminescent assay. [Related pubchem assays (depositor defined):AID2582, AID2599]
T4 sequence (Q9GZR1 whole entry): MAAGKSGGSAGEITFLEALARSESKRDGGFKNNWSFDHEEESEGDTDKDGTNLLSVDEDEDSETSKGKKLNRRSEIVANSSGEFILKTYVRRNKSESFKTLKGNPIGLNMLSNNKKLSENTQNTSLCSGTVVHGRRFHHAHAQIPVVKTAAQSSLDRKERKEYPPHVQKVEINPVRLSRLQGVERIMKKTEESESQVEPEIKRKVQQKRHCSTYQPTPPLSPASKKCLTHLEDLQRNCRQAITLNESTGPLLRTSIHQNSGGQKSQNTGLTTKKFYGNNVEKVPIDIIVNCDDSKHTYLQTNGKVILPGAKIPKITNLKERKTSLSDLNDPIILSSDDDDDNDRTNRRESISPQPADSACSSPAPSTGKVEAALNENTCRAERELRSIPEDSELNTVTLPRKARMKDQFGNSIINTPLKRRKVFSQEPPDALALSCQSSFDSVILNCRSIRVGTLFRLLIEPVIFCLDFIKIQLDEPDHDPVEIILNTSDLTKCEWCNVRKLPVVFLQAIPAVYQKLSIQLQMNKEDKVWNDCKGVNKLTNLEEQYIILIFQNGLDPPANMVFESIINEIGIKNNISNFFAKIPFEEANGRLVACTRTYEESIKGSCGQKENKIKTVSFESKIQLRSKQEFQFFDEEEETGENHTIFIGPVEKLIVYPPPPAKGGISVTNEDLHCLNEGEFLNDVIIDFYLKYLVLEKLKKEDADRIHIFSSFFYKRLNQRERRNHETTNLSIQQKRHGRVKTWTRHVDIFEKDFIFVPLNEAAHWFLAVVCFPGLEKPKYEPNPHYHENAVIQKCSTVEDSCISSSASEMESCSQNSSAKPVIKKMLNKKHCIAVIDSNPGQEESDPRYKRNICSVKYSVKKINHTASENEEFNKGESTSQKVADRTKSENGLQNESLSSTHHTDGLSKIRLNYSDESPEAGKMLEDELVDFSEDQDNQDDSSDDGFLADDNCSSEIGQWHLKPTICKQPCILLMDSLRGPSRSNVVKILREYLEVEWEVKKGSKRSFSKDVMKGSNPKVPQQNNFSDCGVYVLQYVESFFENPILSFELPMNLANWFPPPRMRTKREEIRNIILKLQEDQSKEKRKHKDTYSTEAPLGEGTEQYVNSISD

[7] = biological target: T2, Sentrin-specific protease 8; assay: SENP8 protease inhibitors, SAR follow-up, biochemical, luminescence (AID 504501)
Caspase-3 [8] = biological target: T5, Caspase-3 (Homo sapiens, UniProt P42574); assay: SAR Analysis of small molecule inhibitors of Sentrin-specific proteases (SENPs) using a Caspase-3 Selectivity assay. [Related pubchem assays (depositor defined):AID2540, AID2599, AID434973, AID489001]
T5 sequence (P42574 whole entry): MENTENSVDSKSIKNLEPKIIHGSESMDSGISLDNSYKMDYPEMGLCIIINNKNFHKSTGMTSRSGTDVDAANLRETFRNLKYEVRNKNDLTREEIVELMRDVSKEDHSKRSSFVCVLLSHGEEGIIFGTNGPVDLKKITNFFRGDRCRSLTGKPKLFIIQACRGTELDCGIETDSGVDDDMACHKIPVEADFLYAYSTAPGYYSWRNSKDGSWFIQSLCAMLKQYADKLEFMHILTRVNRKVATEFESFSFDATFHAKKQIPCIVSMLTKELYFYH

Caspase-3 [9] = biological target: T5, Caspase-3; assay: caspase-3 inhibitors as off-family protease, SAR follow-up, selectivity assay for SENP protease inhibitor project, biochemical, luminescence, set 2 (AID 588599)
[10] = biological target: T3, Sentrin-specific protease 7; assay: SENP7 protease inhibitors, SAR follow-up, biochemical, luminescence, set 2 (AID 588600)
[11] = biological target: T4, Sentrin-specific protease 6; assay: SENP6 protease inhibitors, SAR follow-up, biochemical, luminescence, set 2 (AID 588598)

| IC50 (Fatty acid synthase [1]) | IC50 [2] | IC50 (Fatty acid synthase [3]) | IC50 [5] | IC50 [6] | IC50 (Caspase-3 [8]) | IC50 (Caspase-3 [9]) | IC50 [10] | IC50 [11] | SMILES | IC50 [4] | IC50 [7] |
| --- | --- | --- | --- | --- | --- | --- | --- | --- | --- | --- | --- |
| 752 nM (active) | 19100 nM (active) | 379 nM (active) | – | – | – | – | – | – | CC(C)c1ccc(/C=N/Nc2cc(N3CCOCC3)nc(N3CCOCC3)n2)cc1 | – | – |
| – | – | – | 1600 nM (active) | 20000 nM (active) | 5500 nM (active) | 2550 nM (active) | 1870 nM (active) | 1530 nM (active) | Oc1ccccc1-c1nc(/C=C/c2ccc(F)cc2)no1 | 1640 nM (active) | > 99000 nM (inactive) |
